Measurements from US20220008392A1, “METHODS OF TREATING CANCER” (ASTRAZENECA AB, priority 2018, published 2022).

What was measured:
[1] = tested on: lymphoma cell lines; assay: 6-hour caspase activation assay (Caspase-Glo 3/7) in 33 lymphoma cell line panel; type: cell-based; conditions: for Emax: 6 hour compound incubation, cell lines highlighted in FIG. 1B, read-out: caspase maximum effect
Experimental: Method: 33 diffuse large B-cell (DLBCL) and Mantle cell (MCL) lymphoma cell lines were seeded onto 384 well plates pre-dosed with 10-point, ½ log titrations of AZD4573 or AZD5991, and incubated for 6 hours. Following the incubation cleaved caspase was measured using Caspase-Glo 3/7 (Promega) following the manufacturer's protocol. Data was analyzed using GeneData Screener and Spotfire.
Method: Cell lysates from 33 lymphoma cell lines were generated in parallel to evaluate protein expression of pro-survival Bcl2 family members. Cell lysates were normalized for protein concentration using the BCA Protein Assay Kit, and western blots were run according to standard protocols. A positive cell line control for expression of Bfl-1, TMD8, was utilized for normalization to other cell lines in the panel. AZD4573 and AZD5991 respective median and geomean caspase EC50's were calculated from cell lines clustered based on high and low Bfl-1 expression, respectively.

[2] = tested on: OCILY10 and TMD8 cell lines; assay: Caspase-Glo 3/7 activation after Bfl-1 siRNA knockdown; type: cell-based; conditions: 6 hours
Experimental: Method: OCILY10 and TMD8 cells were grown in logarithmic phase and plated in serum-free siRNA delivery media at 1×10^6 cells/mL in 12-well plates (Dharmacon B-005000). An siRNA SMARTpool targeting Bfl-1 or a scrambled negative control (NTC) were added to respective wells for 24 hours at 0.1 or 0.5 μM (Dharmacon Bcl2a1-597, NTC-D-001910-01). 2 mL of cell culture media was added to all transfected wells and transferred into a 6-well plate for an additional 48 hours. Transfected cells were collected to assess Bfl-1 protein knockdown and cleaved caspase-3 by western blot. Transfected cells were also seeded onto 384 well plates pre-dosed with an 8-point titration of AZD4573 or AZD5991 and incubated for 6 hours. The plates were measured for activation of cleaved caspase using Caspase-Glo 3/7 (Promega) following the manufacturer's protocol.

[3] = tested on: Mcl-1 and Bfl-1; assay: Mcl-1 and Bfl-1 mRNA (PCR) and Bcl2 family protein (western blot) modulation in OCILY10 cells; type: cell-based
Experimental: (§1) Method: The ABC-DLBCL cell line OCILY10 was treated for 6 h with a 9 pt, ½ log dose response of AZD4573 and cells were harvested for protein lysates. These cells were also treated with AZD4573 at 100 nM for varying timepoints out to 6 hours. At each timepoint (0, 0.5, 1, 2, 4, 6 hours) cells were harvested for either mRNA isolation, or protein lysates, respectively. mRNA was converted to cDNA and PCR sequence amplification was performed with Mcl1 and Bcl2a1 primers following standard protocols. Protein lysates were normalized for protein concentration using the BCA Protein Assay Kit, and run for western blots according to standard protocols. To ensure expected target engagement was achieved, the blots were probed for the proximal biomarker for CDK9 (pSer2-RNAPolII), along with Mcl-1 and Bfl-1. To gauge the time to induction of apoptosis, cleaved caspase-3 was assessed. A loading control (vinculin) was also utilized for normalization.

[4] = tested on: TMD8 xenograft; assay: TMD8 ABC-DLBCL xenograft efficacy; type: in vivo, C.B.-17 SCID female mice
Experimental: (§2) Method: AZD4573 was formulated in dimethylacetamide (DMA)/polyethylene glycol 400 (PEG 400)/1% w/v Tween 80 solution 2/30/68 and dosed at 15 mg/kg, intraperitoneally (ip), BID with a 2 hour split on days 1 and 2 with a 5 day dose holiday.
(§3) AZD5991 was formulated for intravenous use in 30% HPBCD (hydroxy-propyl-beta-cyclodextrin) in water-for-injection adjusted to pH 9.0-9.5 up to a concentration of 20 mg/mL (based on parent form). AZD5991 was dosed at 60 mg/kg by tail-vain intravenous injection once weekly.
(§4) 5×10^6 OCILy10 tumor cells or 10×10^6 TMD8 tumor cells were injected subcutaneously in the right flank of C.B.-17 SCID female mice in a volume of 0.1 mL containing 50% matrigel.
(§5) Tumor volumes (measured by caliper), animal body weight, and tumor condition were recorded twice weekly for the duration of the studies. The tumor volume was calculated using the formula: length (mm)×width (mm)^2×0.52. For efficacy studies, growth inhibition from the start of treatment was assessed by comparison of the differences in tumor volume between control and treated groups. Dosing began when mean tumor size reached approximately 150-180 mm^3. CR=complete response.

[5] = tested on: pSer2-RNAP2; assay: Western blot of proximal CDK9 biomarker in OCILY10 cells treated with AZD4573; type: cell-based
Experimental: as §1

[6] = tested on: OCILY10 xenograft; assay: OCILY10 ABC-DLBCL xenograft efficacy; type: in vivo, C.B.-17 SCID female mice
Experimental: as §2, §3, §4, §5

[7] = tested on: OCILY10 cells; assay: Cleaved caspase-3 induction over time in OCILY10 cells; type: cell-based; conditions: 100 nM AZD4573
Experimental: as §1

[8] = 15 mg/kg ip BID with 2 hour split on days 1 and 2, 5 day dose holiday

Structure (SMILES): Cc1c2c(nn1C)CSCc1cc(n(C)n1)CSc1cc(c3ccccc3c1)OCCCc1c(C(=O)O)n(C)c3c-2c(Cl)ccc13 (atropisomer, axis not shown) [AZD5991]
- Emax [1]: < 50%
- maximum level of apoptosis (cleaved caspase) ([2]; OCILY10 and TMD8, Bfl-1 siRNA knockdown cells): over 90%
- maximum level of apoptosis (cleaved caspase) ([2]; average of OCILY10 and TMD8, without Bfl-1 knockdown): 45%

Structure (SMILES): CC(=O)N[C@@H]1CCC[C@H](C(=O)Nc2cc(-c3cnn4c3CC(C)(C)C4)c(Cl)cn2)C1 [AZD4573, (1S,3R)-3-acetamido-N-(5-chloro-4-(5,5-dimethyl-5,6-dihydro-4H-pyrrolo [1,2-b]pyrazol-3-yl)pyridin-2-yl)cyclohexanecarboxamide]
- time by which Mcl1 and Bfl1 mRNA expression were reduced to equivalent levels ([3]; 100 nM AZD4573): ≤ 2 h
- time of reductions in Mcl-1 and Bfl-1 protein ([3]; 100 nM AZD4573): 4 h
- expression of longer lived proteins Bcl2, Bcl-xL and Bcl-W ([3]; after 6 h treatment with AZD4573): relatively unchanged
- reductions in Mcl-1 and Bfl-1 protein ([3]; at concentrations that inhibited pSer2-RNAP2): Equipotent reductions
- Emax [1]: > 50%
- geometric mean caspase EC50 difference between AZD5991 and AZD4573 ([1]; Bfl-1 expressing cell lines (n=8)): 22 fold
- geometric mean caspase EC50 difference between AZD5991 and AZD4573 ([1]; cell lines with no expression of Bfl-1 (n=25)): 4 fold
- TGI [4, 8]: 184%
- anti-tumor response ([4]; TMD8 xenograft, AZD4573 treatment): complete tumor regressions
- Expression of pSer2-RNAP2 inhibited ([5]; 100 nM AZD4573, 30 minutes after dosing): > 80%
- pSer2-RNAP2 inhibition ([5]; 6 h, serial dilutions of AZD4573): inhibited in a dose-dependent manner
- TGI [6, 8]: 198%
- anti-tumor response ([6]; OCILY10 xenograft, AZD4573 treatment): complete tumor regressions
- time at which cleaved caspase was detected [7]: 6 h
